Reference: patent US20060257861A1 (priority 2005, published 2006)

Columns and labels:
Type in all cases: biochemical
ACE1 [1] = tested on: ACE1
ACE2 = molecular target: T1, ACE2 (Mus musculus, UniProt Q8R0I0); experiment: SELDI-TOF-MS ACE assay, kidney extract incubated with AngI (ACE2 activity); conditions: AngI + kidney extract + MLN 4760
T1 construct: Kidney extract (source of ACE1 & ACE2); from tissue; host or cells: kidney extract
Protocol: FIG. 3: SELDI-TOF-MS ACE assay. Kidney extract (source of ACE1 & ACE2) were incubated with AngI A: kidney extract control; B: AngI; C: AngI+kidney extract, showing peptides generated from ACE1 & ACE2; D: AngI+kidney extract+MLN 4760 (ACE2 inhibitor).

ACE1 [2] = tested on: ACE1; remark: listed apart in the source

T1 sequence (Q8R0I0 18-805): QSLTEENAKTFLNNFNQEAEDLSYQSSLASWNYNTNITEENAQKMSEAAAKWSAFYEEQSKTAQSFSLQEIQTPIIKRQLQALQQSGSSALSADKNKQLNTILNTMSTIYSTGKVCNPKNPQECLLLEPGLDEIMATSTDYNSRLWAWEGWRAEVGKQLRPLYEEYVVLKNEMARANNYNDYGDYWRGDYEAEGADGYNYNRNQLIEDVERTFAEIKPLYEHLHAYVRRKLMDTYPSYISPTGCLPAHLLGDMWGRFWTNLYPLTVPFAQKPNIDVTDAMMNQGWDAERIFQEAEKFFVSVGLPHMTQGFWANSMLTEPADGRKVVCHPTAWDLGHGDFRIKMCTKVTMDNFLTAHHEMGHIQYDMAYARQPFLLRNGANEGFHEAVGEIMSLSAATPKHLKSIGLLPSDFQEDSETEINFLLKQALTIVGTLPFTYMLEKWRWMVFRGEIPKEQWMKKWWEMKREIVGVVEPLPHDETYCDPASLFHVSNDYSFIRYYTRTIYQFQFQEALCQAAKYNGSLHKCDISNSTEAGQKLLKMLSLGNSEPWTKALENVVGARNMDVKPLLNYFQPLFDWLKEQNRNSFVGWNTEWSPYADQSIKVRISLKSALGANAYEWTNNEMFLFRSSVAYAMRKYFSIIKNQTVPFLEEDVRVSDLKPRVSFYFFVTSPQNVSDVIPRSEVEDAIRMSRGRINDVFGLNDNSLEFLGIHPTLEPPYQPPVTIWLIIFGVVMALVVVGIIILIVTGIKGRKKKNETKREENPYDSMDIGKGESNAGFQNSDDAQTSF

CC(C)C[C@H](N[C@@H](Cc1cncn1Cc1cc(Cl)cc(Cl)c1)C(=O)O)C(=O)O [MLN 4760]
effect on the formation of AngII (ACE1 [1]): no effect
cleavage of AngI to Ang (1-7) (ACE2): inhibited
AngII level (ACE1 [2]): increased
effect on ACE1 (ACE1 [2]): without affecting ACE1
